In patent publication US10517870B2, “Aryl substituted bicycle heteroaryl compounds” (Bristol-Myers Squibb Company, priority 2015, dated 2019):

Legend:
Assay type in all cases: cell-based
[1] = tested on: platelet aggregation induced by gamma-thrombin; assay: Gamma thrombin induced platelet aggregation assay in platelet rich plasma (PRP); settings: human platelet rich plasma
Source text: The compounds of the current invention can be tested in vitro for their ability to inhibit platelet aggregation induced by gamma-thrombin as shown in Example C. Gamma-thrombin, a proteolytic product of alpha-thrombin which no longer interacts with PAR1, selectively cleaves and activates PAR4 (Soslau, G. et al., “Unique pathway of thrombin-induced platelet aggregation mediated by glycoprotein Ib”, J. Biol. Chem., 276:21173-21183 (2001)). Platelet aggregation can be monitored in a 96-well microplate aggregation assay format or using standard platelet aggregometer. […]
The ability of the compounds of the current invention to inhibit platelet aggregation induced by gamma-thrombin was tested in a 96-well microplate aggregation assay format. […] The plate was then placed into a SpcctraMax® Plus Plate Reader (Molecular Devices) at 37° C. Platelet aggregation was monitored at a wavelength of 405 nm using a kinetic analysis mode. […] Inhibition of platelet aggregation (IPA) was calculated based on the formula: % IPA=(100−100*[ODcompound−ODminimum]/[ODmaximum−ODminimum]). The IC50 value of the test compound was calculated by fitting the % IPA values to the one-site concentration response equation: Y=A+(B−A)/{1+(C/X)^D]}, using XLfit for 32 bit Excel® Version 2 Build 30 (ID Business Solutions Limited).

Caski (HPV16+) cells = assay: Cell proliferation/viability assay, Caski cells; settings: Homo sapiens, Ca-Ski, 96 h, 4 days
Method: (§1) Caski (catalog number CRL-1550), SiHa (catalog number HTB-35), C33A (catalog number HTB-31), Saos-2 (ATCC HTB-85), and Hela (catalog number CCL-2) cells were obtained from the American Type Culture Collection (ATCC). The human cervical carcinoma cell lines Caski. SiHa, Hela and C33A, and the human osteosarcoma cell line Saos-2, and the human keratinocyte cell line HaCaT were cultured in Dulbecco's Modified Eagle Medium (DMEM, Invitrogen catalog number 11965-092) supplemented with 10% fetal bovine serum. The colorectal carcinoma cell line HCT-116 was cultured in Roswell Park Memorial Institute-1640 Medium (Invitrogen catalog number 11875-093) supplemented with 10% FBS. All cells were incubated at 37° C. in a humidified atmosphere with 5% CO2 in air. To establish the SCHPV-18 cell line, one million primary neonatal human foreskin keratinocytes (Invitrogen, catalog no. C-001-5C), cultured in KBM Gold-keratinocvte cell basal medium (Lonza, catalog no. 192060), were electroporated with 5 μg HPV-18 plasmid DNA (ATCC catalog no. 45152D) using the Amaxa Nucleofector II on setting T-007. Cells were co-transfected with 2 μg plasmid pZSGreen1-N1 (Clontech catalog no. 632448) encoding G418 resistance, and cells were selected for four days in 100 μg/ml G418, after which selection was removed. Cells were maintained in culture six months prior to compound testing. Integration of the HPV 18 genome was confirmed by Southern blot. Control cells transfected in parallel with pZSGreen1-N1 alone became senescent four days after selection and the culture could not be expanded. SCHPV-18 cells were maintained in E medium (Fehrmann F, Laimins L A. Human papillomavirus type 31 life cycle: methods for study using tissue culture models. Methods Mol Biol 2005; 292:317-330).
(§2) For proliferation assays, cells were plated in white polystyrene 96-well plates (Costar catalog number 3917) for CellTiter Glo viability assays or 96-well special optics plates (Costar cat #3614) for CellTiter Blue viability assays. Cells were plated in the appropriate growth medium without antibiotics. Two hours after cell plating, a 200× compound stock diluted in DMSO was added to a final concentration of 0.5%. Plates were incubated at 37° C., for 4 days and then cell viability was assessed using either CellTiter Blue (Promega catalog number G8081) or CellTiter Glo (Promega catalog number G7572) according to the manufacturer's instructions. For the CellTiter Blue viability assay, data was collected using the SpectraMax Gemini EM (Molecular Devices) with an excitation wavelength of 530 nm and emission wavelength of 590 nm. For the CellTiter Glo viability assay, data was collected using the Envision Mulitlabel Reader (Perkin Elmer catalog number 2104-0010). To calculate IC50 and EC50 values, percent inhibition curves were fit using a four-parameter logistic formula [y=A+[…]], where A and B denote minimal and maximal % inhibition, respectively, C is the IC50 value, D is the Hill slope, and x represents compound concentration.
(§3) Table C, below, sets out the results obtained employing various compounds of the invention tested for their effects on proliferation of such cells. Caski or SiHa cells, transformed by HPV 16, Hela cells, transformed by HPV 18, or HPV-negative control cell lines (Saos-2 or C33a) were treated with various compounds. […] Unlike the HPV-negative Saos-2 or C33a cell lines, the HPV-transformed cell lines rely on the presence of HPV for their continued proliferation. Therefore, a comparison of IC50 values from HPV-transformed cell lines with IC50 values obtained from HPV-negative cell lines can be used to test for compound selectivity.

Saos-2 (HPV−) cells = assay: Cell proliferation/viability assay, Saos-2 cells; settings: Homo sapiens, SAOS-2, 96 h, read-out: Saos-2 (HPV−) Proliferation IC50 (μM)
Method: as §1, §2, §3

SiHa (HPV16+) cells = assay: Cell proliferation/viability assay, SiHa cells; settings: Homo sapiens, 96 h, 4 days
Method: as §1, §2, §3

HeLa (HPV18+) cells = assay: Cell proliferation/viability assay, HeLa cells; settings: Homo sapiens, 96 h, 4 days
Method: as §1, §2, §3

## COc1ccc(-c2cc(C)cc3nc(OC(F)F)cnc23)cc1 [Example 6, 2-(difluoromethoxy)-5-(4-methoxyphenyl)-7-methylquinoxaline]
[1]
  IC50: > 30 µM
Caski (HPV16+) cells
  IC50: 7.1 µM
Saos-2 (HPV−) cells
  IC50: 48 µM
SiHa (HPV16+) cells
  IC50: 10.1 µM
HeLa (HPV18+) cells
  IC50: 10.6 µM
